These results are taken from US20110118348A1, “Methods of stabilizing latanoprost in an aqueous solution” (SANTEN PHARMACEUTICAL CO., LTD., priority 2002, published 2011).

The data set in a line: Stability Test of Latanoprost 1: residual ratio of latanoprost in phosphate buffer at each pH after storage at 60° C. or 70° C. (HPLC). The format is physicochemical. The conditions noted are these: for Residual ratio (%): pH 8.0, phosphate buffer. How it is done: 1) Latanoprost (0.0025 g) was weighed out in a 50 ml-beaker, a phosphate buffer (50 ml) having each pH (4.0, 5.0, 5.5, 6.0, 6.25, 6.5, 6.7 or 8.0) prepared in advance was added to the beaker, and the mixture was stirred with a magnetic stirrer. The mixture was stirred while warming it in a water bath at about 80° C. for about 30 minutes to dissolve latanoprost. 2) It was confirmed that latanoprost was dissolved, and pH was confirmed. 3) A glass ampoule was charged with each prepared solution (2.5 ml) and sealed by melting it. 4) It was stored at 60° C. or 70° C. 5) Sampling was carried out with time until 28th day after starting storage, latanoprost contents were measured by high performance liquid chromatography, and residual ratios were calculated. Samples having residual ratios of 95% or higher after storage at 60° C. for 28 days and residual ratios of 90% or higher after storage at 70° C. for 28 days were judged to be stable.

Marks after values point to notes of the source that are not given here.

Regarding `CC(C)OC(=O)CCC/C=C\C[C@@H]1[C@@H](CC[C@@H](O)CCc2ccccc2)[C@H](O)C[C@@H]1O` [latanoprost, isopropyl (Z)-7[(1R,2R,3R,5S)3,5-dihydroxy-2-[(3R)-3-hydroxy-5-phenylpentyl]cyclopentyl]-5-heptanoate], the “Residual ratio (%) after storage for 28 days” value (60° C., pH 4.0, phosphate buffer) came to 87.4%; the “Residual ratio (%) after storage for 28 days” value (60° C., pH 5.0, phosphate buffer) is on record as 98.9%; the “Residual ratio (%) after storage for 28 days” value (60° C., pH 5.5, phosphate buffer) came to 98.0%; the “Residual ratio (%) after storage for 28 days” value (60° C., pH 6.0, phosphate buffer) was 98.9%; the “Residual ratio (%) after storage for 28 days” value (60° C., pH 6.25, phosphate buffer) is recorded as 95.0%; the “Residual ratio (%) after storage for 28 days” value (60° C., pH 6.5, phosphate buffer) came to 92.4%. Moreover, the “Residual ratio (%) after storage for 28 days” value by setting is: (60° C., pH 6.7, phosphate buffer) 93.4%; (70° C., pH 4.0, phosphate buffer) 76.7%; (70° C., pH 5.0, phosphate buffer) 94.9%; (70° C., pH 5.5, phosphate buffer) 94.6%; (70° C., pH 6.0, phosphate buffer) 93.1%; (70° C., pH 6.25, phosphate buffer) 92.0%. Also, the “Residual ratio (%) after storage for 28 days” value (70° C., pH 6.5, phosphate buffer) is given as 82.7%. Further, the “Residual ratio (%)” value is 30.0* % (60° C., value on 21st day) and 14.1** % (70° C., value on 12th day).
